Data on 39 compounds can be found in PubChem BioAssay AID624167 (Sanford-Burnham Center for Chemical Genomics, 2012).

As usually defined, the IC50 is the concentration needed to halve the response being measured.

The source made the active and inactive calls.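 Rule for the calls: active = mean IC50 for reducing PEG3 promoter reporter signal at or below a set limit, with IC50 above the limit in both counter screens; inactive = the rest, including counter screen hits.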

Assay [1] concerns the target PEG-3 (UniProt Q6IN02). Description: inhibition of PEG-3 promoter-driven reporter – cell-based, HeLa, luciferase, CREF/GAPDH counter-screen panel, dose response (AID 624167). Particulars: HeLa PEG-Prom luciferase reporter, overnight, CREF/GAPDH counter-screens, mean of runs. A general note: Counterscreens check selectivity or assay interference.
The test system of assay [2] is PEG-3. Described as above. As to conditions: HeLa PEG-Prom luciferase reporter, overnight, CREF/GAPDH counter-screens.
Setting [3] is: run 1, dose range 1, individual replicate IC50 per panel.
The mark [4] stands for this setting: run 2, dose range 1, individual replicate IC50 per panel.

PEG-3 (UniProt Q6IN02), sequence (Q6IN02 whole entry, looked up): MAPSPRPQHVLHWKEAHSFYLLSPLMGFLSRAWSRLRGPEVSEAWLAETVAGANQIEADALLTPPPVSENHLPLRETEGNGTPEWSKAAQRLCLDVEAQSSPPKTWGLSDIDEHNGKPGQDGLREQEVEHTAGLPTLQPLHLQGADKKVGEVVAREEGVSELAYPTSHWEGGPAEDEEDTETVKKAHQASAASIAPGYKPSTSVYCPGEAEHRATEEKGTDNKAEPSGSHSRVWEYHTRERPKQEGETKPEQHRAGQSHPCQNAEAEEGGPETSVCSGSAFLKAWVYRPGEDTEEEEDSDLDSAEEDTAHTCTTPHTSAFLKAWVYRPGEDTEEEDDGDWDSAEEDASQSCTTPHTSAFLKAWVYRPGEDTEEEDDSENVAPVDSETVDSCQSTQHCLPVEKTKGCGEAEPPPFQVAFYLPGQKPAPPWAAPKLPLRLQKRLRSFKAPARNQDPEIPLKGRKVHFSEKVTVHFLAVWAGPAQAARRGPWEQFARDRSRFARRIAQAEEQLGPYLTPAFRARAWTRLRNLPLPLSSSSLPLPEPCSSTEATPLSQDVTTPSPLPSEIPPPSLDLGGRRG

For `COc1cccc(-c2cnc3c(NC=O)cc(-c4cccc(C(=O)N(C)C)c4)cn23)c1`, the 50% inhibitory concentration (IC50) at PEG-3 [1] was 18.8 µM; in the assay with PEG-3 [2] (setting [3]) it was 19.9 µM; in the assay with PEG-3 [2] (setting [4]) it was 17.7 µM.
For `Cc1ccccc1NC(=O)C(=Cc1ccc(C(=O)O)cc1)C(=O)Nc1ccccc1C`, in that order: “inactive”, 37.3 µM and 74.4 µM.
As for `CC(=O)c1cccc(NC(=O)c2cccc3c(-c4cccnc4)coc23)c1`, the IC50 result on PEG-3 [1] is “inactive”. Moreover, the values for the half-maximal inhibitory concentration (IC50) with PEG-3 [2] (setting [3]) and in the assay on PEG-3 [2] (setting [4]) were 25.6 µM and greater than 100 µM, respectively.
In the case of `Cc1cnc(NC(=O)C2CC(=O)N(c3cccc(Cl)c3)C2)s1` (configuration not stated), the half-maximal inhibitory concentration (IC50) on PEG-3 [1] is 13.6 µM; in the assay with PEG-3 [2] (setting [3]) it was 23.5 µM; in the assay on PEG-3 [2] (setting [4]), 3.78 µM.
In the same order, the values of `COc1ccccc1CN(C)C(=O)c1cc(-c2cccs2)nc2ccccc12` are 13.5 µM, 14.3 µM and 12.7 µM.
For `O=Cc1cn(Cc2ccc(Br)cc2)c2ccccc12`, in that order: “inactive”, 43.8 µM and greater than 100 µM.
For `NCCCNc1nc(N)c([N+](=O)[O-])c(NC2CCCCC2)n1`, in that order: 12.3 µM, 10.7 µM and 13.9 µM.
As to `OC[C@@H]1[C@@H](c2ccc(Cl)cc2)C(c2cccc(Cl)c2)=NN1c1ccccc1`, the IC50 entry at PEG-3 [1] is “inactive”. For the same compound, the IC50 with PEG-3 [2] (setting [3]) was found to be 30.5 µM; in the assay on PEG-3 [2] (setting [4]), 16.4 µM.
In the same order, the values of `CC1=C(CC[C@@H](C)CO)OC2CC3C4CCC5CC(O)CCC5(C)C4CC(=O)C3(C)C12` (some centres not stated) are “inactive”, 24.7 µM and 64.2 µM.
In the same order, the values of `CC(=O)c1cccc(-c2csc3ncnc(Sc4nnnn4C)c23)c1` are 15.7 µM, 16 µM and 15.3 µM.
For `CCN1CCCC1CN(Cc1cc2ccc(C)cc2[nH]c1=O)C(=S)Nc1ccc(OC)cc1` (configuration not stated), in that order: “inactive”, 42 µM and 37.5 µM.
Turning to `CC(C)(c1ccccc1)c1ccc(OCC(O)CNC2CCN(Cc3ccccc3)CC2)cc1` (configuration not stated), the half-inhibitory concentration (IC50) at PEG-3 [1] was 15.7 µM; with PEG-3 [2] (setting [3]), 21.9 µM; with PEG-3 [2] (setting [4]) it was 9.42 µM.
In the same order, the values of `Cc1cc(C)cc(NC(=O)Cn2c(=O)oc3cc(S(=O)(=O)N4CCC(C)CC4)ccc32)c1` are “inactive”, greater than 100 µM and 7.9 µM.
Take `Cc1ccc(C)c(NP(=O)(Oc2ccccc2)Oc2ccccc2)c1`: the IC50 entry on PEG-3 [1] is “inactive”. For the same compound, the IC50 in the assay on PEG-3 [2] (setting [3]) came to 28.7 µM; in the assay with PEG-3 [2] (setting [4]), 19.1 µM.
In the same order, the values of `CCCCCc1ccc(OCCCC[n+]2cccc(C)c2)c(CCCCC)c1` are 13.6 µM, 16.4 µM and 10.7 µM.
For `COCOCCn1cc(CN2CCS(=O)(=O)N(Cc3ccc(-c4ccc(Cl)c(Cl)c4)cc3)C(C(C)C)C2=O)nn1` (configuration not stated), in that order: “inactive”, 34.9 µM and 18 µM.
Turning to `CC(NS(=O)(=O)OCC(Cl)(Cl)Cl)c1ccc(C(C)(C)C)cc1` (configuration not stated), the IC50 result on PEG-3 [1] is “inactive”. Besides, the IC50 is 38.1 µM in the assay on PEG-3 [2] (setting [3]) and greater than 100 µM with PEG-3 [2] (setting [4]).
For `CNC(=O)c1ccsc1NC(=O)c1ccc(S(=O)(=O)N2CCc3ccccc32)cc1`, the half-inhibitory concentration (IC50) at PEG-3 [1] was 16.5 µM; in the assay on PEG-3 [2] (setting [3]), 19.2 µM; in the assay on PEG-3 [2] (setting [4]), 13.9 µM.
In the same order, the values of `Cn1c(=O)c(C(=O)CCl)c(N)n(Cc2ccccc2)c1=O` are “inactive”, 28.6 µM and 13.2 µM.
Turning to `CCCCNc1c(-c2cccc(Sc3ccc(OC)cc3)c2)nc2ccccn12`, the values for the half-inhibitory concentration (IC50) on PEG-3 [1], in the assay on PEG-3 [2] (setting [3]) and with PEG-3 [2] (setting [4]) were 13.6 µM, 16.7 µM and 10.6 µM, respectively.
Turning to `CC(C)(C)c1ccc(/C=N/Nc2ccc(C(=O)O)cc2)cc1`, the IC50 result at PEG-3 [1] is “inactive”. Besides, the half-inhibitory concentration (IC50) is 36.7 µM in the assay on PEG-3 [2] (setting [3]) and 28 µM in the assay on PEG-3 [2] (setting [4]).
In the same order, the values of `COc1cc(OC)c(OC)cc1CCC(C)NCCC(c1ccccc1)c1ccccc1` (configuration not stated) are 18.4 µM, 20.3 µM and 16.5 µM.
As for `Cc1cc(C)c2c(N)c3ccccc3nc2n1`, the IC50 result on PEG-3 [1] is “inactive”. In addition, the values for the half-maximal inhibitory concentration (IC50) with PEG-3 [2] (setting [3]) and in the assay with PEG-3 [2] (setting [4]) were 18.5 µM and greater than 100 µM, respectively.
For `COc1cc(NC(=O)Nc2nc(C(N)CCc3ccccc3)cs2)cc(OC)c1OC` (configuration not stated), in that order: “inactive”, 21.3 µM and 40.6 µM.
In the same order, the values of `COc1ccc2c(c1)[nH]c1c(=O)n(/N=C/C3C(C)C=C(C)CC3C)c(=O)[nH]c12` (configuration not stated) are > 100 µM (inactive), greater than 100 µM and greater than 100 µM.
For the compound `O=C1NC(=O)N(Cc2ccccc2)C(=O)/C1=C\C=C\c1ccco1`, the IC50 at PEG-3 [1] is 13.5 µM; in the assay on PEG-3 [2] (setting [3]), 15.1 µM; with PEG-3 [2] (setting [4]), 12 µM.
For the compound `CNCC[C@@H](Oc1ccc(C(F)(F)F)cc1)c1ccccc1`, on PEG-3 [1], the IC50 entry was “inactive”. In addition, the IC50 in the assay on PEG-3 [2] (setting [3]) was found to be 27 µM; with PEG-3 [2] (setting [4]), 53.2 µM.
In the same order, the values of `CCc1nc(Nc2ccc(N3CCN(C(C)=O)CC3)cc2)c2oc3ccccc3c2n1` are “inactive”, 28.1 µM and 94.9 µM.
As to `O=C(CN1CCCC1)Nc1ccc(-c2nc3cc(NC(=O)CN4CCCC4)ccc3o2)cc1`, the IC50 at PEG-3 [1] was > 100 µM (inactive); in the assay on PEG-3 [2] (setting [3]) it was greater than 100 µM; in the assay with PEG-3 [2] (setting [4]) it was greater than 100 µM.
Regarding `COc1cc(CNCCN2CCOCC2)ccc1OCc1ccc(Cl)cc1Cl`, the IC50 at PEG-3 [1] was 19.8 µM; in the assay with PEG-3 [2] (setting [3]), 20.1 µM; with PEG-3 [2] (setting [4]), 19.5 µM.
On to `CC1=CC2OC3CC4OC(=O)C=CC=CC(C(C)O)OCC(O)C(C)CC(=O)OCC2(CC1O)C4(C)C31CO1` (configuration not stated), for which the IC50 on PEG-3 [1], in the assay with PEG-3 [2] (setting [3]) and in the assay on PEG-3 [2] (setting [4]) was less than 0.2 µM in each case.
In the case of `COCCn1c(C)cc(C2=NNC(=NC3CC3)SC2)c1C`, the half-maximal inhibitory concentration (IC50) is 0.76 µM on PEG-3 [1], 1.32 µM in the assay on PEG-3 [2] (setting [3]) and less than 0.2 µM with PEG-3 [2] (setting [4]).
For `Cc1cccc(/C=C2/Sc3ccc(C(=O)NCCN4CCCC4)cc3NC2=O)c1`, in that order: 15.4 µM, 20.8 µM and 9.95 µM.
For the compound `O=C(c1ccco1)N1CCN(c2ncnc3c2[nH]c2ccc(Br)cc23)CC1`, the IC50 result at PEG-3 [1] was “inactive”. Further, the IC50 was 24.9 µM with PEG-3 [2] (setting [3]) and 24.1 µM with PEG-3 [2] (setting [4]).
Turning to `CC(C)CC1C(=O)N(Cc2cn(CCC3OCCO3)nn2)CCS(=O)(=O)N1Cc1ccc(-c2ccc(F)cc2)cc1` (configuration not stated), the IC50 entry on PEG-3 [1] was “inactive”. Besides, the results for the half-inhibitory concentration (IC50) with PEG-3 [2] (setting [3]) and in the assay on PEG-3 [2] (setting [4]) were 31.3 µM and 33.2 µM, respectively.
In the same order, the values of `CC(NC(=O)c1ccc([N+](=O)[O-])o1)C12CC3CC(CC(C3)C1)C2` (configuration not stated) are “inactive”, 32.3 µM and 14.9 µM.
For `COc1ccc(Nc2nc(-c3ccccc3)nc3ccccc23)cc1S(=O)(=O)N1CCOCC1`, in that order: “inactive”, 9.14 µM and 33.9 µM.
For `COCCn1c(C)cc(C(=O)COC(=O)c2ccccc2Br)c1C`, in that order: “inactive”, 32.1 µM and 53.3 µM.
Take `NC(N)=N/N=C/c1cccc(Cl)c1Cl`: the half-maximal inhibitory concentration (IC50) is 16 µM at PEG-3 [1], 17.4 µM in the assay on PEG-3 [2] (setting [3]) and 14.5 µM in the assay on PEG-3 [2] (setting [4]).
